According to patent US20180125992A1, “DRUG DELIVERY CONJUGATES OF TERTIARY AMINE […]” (ENDOCYTE, INC., priority 2016, published 2018):
pIC50: −log10 of the molar value.

Tested on: KB cells
Test: In vitro FR specific activity of folate conjugates: 3H-thymidine incorporation in KB cells
Type: cell-based
Conditions: 2 h pulse at 37° C., chase up to 72 h, without excess folate
Description: KB cells were seeded in individual 24-well Falcon plates and allowed to form nearly confluent monolayers overnight in FFRPMI/HIFCS. Thirty minutes prior to the addition of folate-conjugate, spent medium was aspirated from all wells and replaced with either fresh FFRPMI or FFRPMI supplemented with 100 μM FA. Each well then received 1 mL of medium containing increasing concentrations of folate-conjugate (3 wells per sample). Cells were pulsed for 2 h at 37° C., rinsed 4 times with 0.5 mL of medium and then chased in 1 mL of fresh medium up to 72 h. Spent medium was aspirated from all wells and replaced with fresh medium containing 5 μCi/mL of ^3H-thymidine. Following a 2 h incubation at 37° C., cells were washed 3 times with 0.5 mL of PBS and then treated with 0.5 mL of ice-cold 5% trichloroacetic acid per well. After 15 min, the trichloroacetic acid was aspirated and the cells solubilized by the addition of 0.5 mL of 0.25 N sodium hydroxide for 15 min at room temperature. Four hundred and fifty μL of each solubilized sample were transferred to scintillation vials containing 3 mL of Ecolume scintillation cocktail and counted in a liquid scintillation counter. Final results were expressed as the percentage of ^3H-thymidine incorporation relative to untreated controls.

Q: `CC/C=C/CN(C(=O)[C@@H](NC(=O)[C@H]1CCCC[N+]1(C)Cc1ccc(SSC[C@H](NC(=O)[C@H](CC(=O)O)NC(=O)[C@H](CC(=O)O)NC(=O)[C@H](CCCNC(=N)N)NC(=O)[C@H](CC(=O)O)NC(=O)CC[C@H](NC(=O)c2ccc(NCc3cnc4nc(N)[nH]c(=O)c4n3)cc2)C(=O)O)C(=O)O)cc1)C(C)CC)[C@H](C[C@@H](OCC)c1nc(C(=O)N[C@@H](Cc2ccc(O)cc2)C[C@H](C)C(=O)O)cs1)C(C)C` (some centres unmarked) [Compound 2] was tested. Which pIC50 did it give?
A: 8.15

Q: `CCCC(=O)OCN(C(=O)[C@@H](NC(=O)[C@H]1CCCC[N+]1(C)CCSSC[C@H](NC(=O)[C@H](CC(=O)O)NC(=O)[C@H](CC(=O)O)NC(=O)[C@H](CCCNC(=N)N)NC(=O)[C@H](CC(=O)O)NC(=O)CC[C@H](NC(=O)c1ccc(NCc2cnc3nc(N)[nH]c(=O)c3n2)cc1)C(=O)O)C(=O)O)C(C)CC)[C@H](C[C@@H](OC(C)=O)c1nc(C(=O)N[C@@H](Cc2ccccc2)C[C@H](C)C(=O)OC)cs1)C(C)C` (some centres unmarked) [Compound 1] was tested. Which pIC50 did it give?
A: 8.30
